The results in this text go back to EP0294258A1, “Hydrazine derivatives, process for obtaining them and pharmaceutical composition containing them” (priority 1987, dated 1988).

Data set [1] relates to rat spontanément hypertendu (S.H.R.). The experiment in a line: Antihypertensive activity in the spontaneously hypertensive rat (SHR). In kind it is in vivo. Conditions: for minimal effective dose: Rattus norvegicus, read-out: Activité anti-hypertensive SHR Dose minimale active.
Another data set in a line: Acute toxicity (DL 50). As to conditions: in vivo.
The test system of a further data set is rat normotendu. The experiment in a line: Cardiovascular effects in the normotensive rat. The data set is classed as in vivo. As to conditions: 50 mg.kg^-1 I.P.
In data set [2] the test system is souris. Briefly: Analgesic activity, P.B.Q. test. Conditions: in vivo.
Data set [3] concerns souris. Briefly: Motor incoordination. The data set is classed as in vivo. As to conditions: I.P.
Data set [4] concerns souris. Briefly: Yohimbine test. As to conditions: in vivo.
Another data set relates to rat. The experiment in a line: Anti-inflammatory activity, carrageenan test. In kind it is in vivo. Conditions: I.P.
Data set [5] deals with souris. Briefly: Spontaneous motility. In kind it is in vivo. As to conditions: I.P.
Data set [6] concerns souris. The experiment in a line: Oxotremorine test. In kind it is in vivo. As to conditions: à forte dose.
Data set [7] deals with souris. The experiment in a line: Analgesic activity, hot plate. The data set is classed as in vivo. Conditions: I.P.
Data set [8] relates to souris. The experiment in a line: Apomorphine test. As to conditions: in vivo.
In data set [9] the test system is souris. Briefly: Antagonism of amphetamine hypermotility. The data set is classed as in vivo. As to conditions: I.P.
Data set [10] has as its system souris. Briefly: Exploratory activity. In kind it is in vivo. Conditions: Mus musculus, ip; I.P.; read-out: diminue l'activité d'exploration D.E.50.
Data set [11] concerns souris. Briefly: Hypothermia. The data set is classed as in vivo. As to conditions: I.P.
The test system of data set [12] is souris. The experiment in a line: Potentiation of barbiturate sleep. The data set is classed as in vivo. Conditions: I.P.

SMILES strings stand for the structures. Where two headings read alike, the source gives them in different places. Bounds are passed on as bounds.

With `CC(=NNC(=O)CC(C)(C)O)c1ccccc1Cl` [1e, reference compound], the “Activité anti-hypertensive SHR Dose minimale active” value in data set [1] (route not given) is given as “inactif”. Further, the LD50 in “Acute toxicity (DL 50)” (ip, I.P.) was 227 mg/kg.
The corresponding values for `CC(C)(O)C(=O)NN=Cc1ccccc1Cl` [1a, reference compound] are “inactif” and 490 mg/kg.
Turning to `CC(=NNC(=O)C(N)=O)c1ccccc1Cl` [Exemple 9, oxamoyl-1 (orthochlorophényl-1 éthylidène-1)-2 hydrazine], the minimal effective dose in [1] (ip, I.P.) amounted to 12.5 mg/kg. This molecule also registered an LD50 in “Acute toxicity (DL 50)” (ip, I.P.) of more than 400 mg/kg.
Regarding `NCC(=O)NN=Cc1ccccc1Cl` [7a, reference compound], in [1] (route not given), the “Activité anti-hypertensive SHR Dose minimale active” value is recorded as “inactif”. In addition, the LD50 in “Acute toxicity (DL 50)” (ip, I.P.) is 360 mg/kg.
In the case of `CCCCC(=NNC(=O)C(C)(C)O)c1ccccc1Cl` [Exemple 26, (hydroxy-2 isobutyroyl)-1 (chloro-2 phényl-1 pentylidène-1)-2 hydrazine], in data set [1] (ip, I.P.), the minimal effective dose was 6.25 mg/kg. For the same molecule, the LD50 in the data set “Acute toxicity (DL 50)” (ip, I.P.) was more than 400 mg/kg.
The corresponding values for `CCC(=NNC(=O)C(C)(C)O)c1ccccc1Cl` [Exemple 16, (hydroxy-2 isobutyroyl)-1 (orthochlorophényl-1 propylidène-1)-2 hydrazine] are 6.25 mg/kg and 179 mg/kg.
For `COCC(=O)NN=C(C)c1ccccc1Cl` [Exemple 6, (méthoxy-2 acétyl)-1 (orthochlorophényl-1 éthylidène-1)-2 hydrazine], the minimal effective dose in data set [1] (ip, I.P.) is 6.25 mg/kg. The molecule further displayed an LD50 in the data set “Acute toxicity (DL 50)” (ip, I.P.) of 200 mg/kg.
Take `CC(=NNC(=O)C(C)(C)O)c1ccc(Cl)cc1` [1b, reference compound]: the “Activité anti-hypertensive SHR Dose minimale active” value in data set [1] (route not given) was “inactif”. The LD50 in the data set “Acute toxicity (DL 50)” (ip, I.P.) is 150 mg/kg.
The corresponding values for `NC(=O)C(=O)NN=Cc1ccccc1Cl` [9a, reference compound] are “inactif” and more than 400 mg/kg.
Regarding `CC(=NNC(=O)CN)c1ccccc1Cl` [Exemple 7, (amino-2 acétyl)-1 (orthochlorophényl-1 éthylidène-1)-2 hydrazine], in data set [1] (po, P.O.), the minimal effective dose was determined as 2 mg/kg. In “Acute toxicity (DL 50)” (ip, I.P.), this molecule came in with an LD50 of 143 mg/kg.
`CSCC(=O)NN=C(C)c1ccccc1Cl` [Exemple 8, (méthylthio-2 acétyl)-1 (orthochlorophényl-1 éthylidène-1)-2 hydrazine]: the minimal effective dose in data set [1] (ip, I.P.) turned out to be 12.5 mg/kg. In “Acute toxicity (DL 50)” (ip, I.P.), this molecule had an LD50 of more than 400 mg/kg.
For the molecule `CC(O)C(=O)NN=Cc1ccccc1Cl` (stereo not shown) [3a, reference compound], the “Activité anti-hypertensive SHR Dose minimale active” value in [1] (route not given) is recorded as “inactif”. Also, the LD50 in the data set “Acute toxicity (DL 50)” (route not given) came out at 300 mg/kg.
In the case of `COCC(=O)NN=Cc1ccccc1Cl` [6a, reference compound], the “Activité anti-hypertensive SHR Dose minimale active” value in data set [1] (route not given) is “inactif”. Further, the median lethal dose (LD50) in the data set “Acute toxicity (DL 50)” (ip, I.P.) was 477 mg/kg.
In the case of `CC(C)(O)C(=O)NN=Cc1ccc(Cl)cc1` [1c, reference compound], in data set [1] (route not given), the “Activité anti-hypertensive SHR Dose minimale active” value is given as “inactif”. This molecule also registered an LD50 in the data set “Acute toxicity (DL 50)” (ip, I.P.) of 660 mg/kg.
For `CC(=NNC(=O)C(C)(C)O)c1ccccc1Cl` [Exemple 1, (hydroxy-2 isobutyroyl)-1 (orthochlorophényl-1 éthylidène-1)-2 hydrazine], in the data set on rat normotendu, the “pression artérielle du rat normotendu” value was “sans modifier” and the “rythme cardiaque du rat normotendu” value is “augmente significativement”. For the same molecule, in [1] (po, P.O.), the minimal effective dose came out at 2 mg/kg. Also, the fréquence cardiaque entry in data set [1] (administration P.O.) is “n'est pas modifiée de manière significative”. Besides, in data set [1] (administration répétée sur 5 jours, 1,5 mg.kg^-1 P.O.), the action antihypertensive entry is “confirment l'action antihypertensive”. For the same molecule, the “diminue la pression artérielle du rat spontanément hypertendu (S.H.R.) D.E.so” value in [1] (administration unique, I.P.) is 1,9 mg.kg^-1. The “action antihypertensive D.E.50” value in [1] (administration unique, P.O.) was determined as 2 mg/kg. In data set [1] (per os, rat SHR printed for MP 440 only), the “activité antihypertensive (dose)” value came to 2 mg/kg. Moreover, in the data set on souris [2], the “activité analgésique au test à la P.B.Q.” value is “faible”. Moreover, in the data set on souris [3], the “incoordination motrice uniquement à forte dose” value amounted to 50 mg/kg. Moreover, the “test de la yohimbine” value with souris [4] was “inactif”. The LD50 in the data set “Acute toxicity (DL 50)” (ip, I.P.) is 482 mg/kg. For the same molecule, the “anti-inflammatoire sur le test à la carraghénine D.E.so” value in the data set on rat amounted to 38 mg/kg. In addition, the “diminue la motilité spontanée D.E.50” value in the data set on souris [5] came out at 10 mg/kg. For the same molecule, the “test à l'oxotrémorine” value with souris [6] is on record as “modifie de façon peu nette”. Also, in the data set on souris [7], the “activité analgésique "plaque chauffante" D.E.50” value came out at 6 mg/kg. For the same molecule, in the data set with souris [8], the “test à l'apomorphine” value was “inactif”. Moreover, the “antagonise l'hypermotilité amphétaminique à partir de (dose)” value in the data set on souris [9] is recorded as ≥ 12,5 mg.kg^-1. Besides, the ED50 with souris [10] came to 27 mg/kg. Also, the “hypothermie uniquement à forte dose” value with souris [11] worked out at 50 mg/kg. The “potentialise le sommeil barbiturique dès la dose de” value in the data set on souris [12] is ≥ 12,5 mg.kg^-1.
With `CC(=NNC(=O)CO)c1ccccc1Cl` [Exemple 4, (hydroxy-2 acétyl)-1 (orthochlorophényl-1 éthylidène-1)-2 hydrazine], the minimal effective dose in data set [1] (route not given) was 3.13 mg/kg. The molecule also gave a median lethal dose (LD50) in the data set “Acute toxicity (DL 50)” (ip, I.P.) of 583 mg/kg.
Regarding `CC(C)(O)CC(=O)NN=Cc1ccccc1Cl` [1d, reference compound], the “Activité anti-hypertensive SHR Dose minimale active” value in data set [1] (route not given) is recorded as “inactif”. Besides, the median lethal dose (LD50) in “Acute toxicity (DL 50)” (ip, I.P.) turned out to be 433 mg/kg.
As for `CC(=NNC(=O)C(C)O)c1ccccc1Cl` (stereo not shown) [Exemple 3, (hydroxy-2 propanoyl)-1 (orthochlorophényl-1 éthylidène-1)-2 hydrazine], the minimal effective dose in data set [1] (ip, I.P.) worked out at 12.5 mg/kg. In addition, the LD50 in the data set “Acute toxicity (DL 50)” (ip, I.P.) was found to be 240 mg/kg.

Broadly, the LD50 is the dose expected to kill half of the subjects tested. Low readings indicate greater toxicity, high ones lower toxicity.
